From patent US9387200B2, “Isothiazole-pyridine derivatives as modulators of HIF (hypoxia inducible factor) activity” (FibroGen, Inc., priority 2008, dated 2016)

Biological target: T1, HIF-PH2 (Homo sapiens, UniProt Q9GZT9)
T1 construct: made in house; host or cells: insect Hi5 cells
Experiment: HIF-PH assay (14CO2 capture, peptide-dependent turnover)
Type: biochemical
Details: compound concentration 22.22 μM
Text: Ketoglutaric acid α-[1-^14C]-sodium salt, alpha-ketoglutaric acid sodium salt, and HPLC purified peptide may be obtained from commercial sources, e.g., Perkin-Elmer (Wellesley Mass.), Sigma-Aldrich, and SynPep Corp. (Dublin Calif.), respectively. Peptides for use in the assay may be fragments of HIFα as described above or as disclosed in International Publication WO 2005/118836, incorporated by reference herein. For example, a HIF peptide for use in the HIF-PH assay is [methoxycoumarin]-DLDLEALAPYIPADDDFQL-amide. HIF-PH, e.g., HIF-PH2 (EGLN1), can be expressed in, e.g., insect Hi5 cells, and partially purified, e.g., through a SP ion exchange chromatography column. Enzyme activity is determined by capturing ^14CO2 using an assay described by Kivirikko and Myllyla (1982, Methods Enzymol. 82:245-304). Assay reactions contain 50 mM HEPES (pH 7.4), 100 μM α-ketoglutaric acid sodium salt, 0.30 μCi/mL ketoglutaric acid α-[1-^14C]-sodium salt, 40 μM FeSO4, 1 mM ascorbate, 1541.8 units/mL Catalase, with or without 50 μM peptide substrate and various concentrations of compound of the invention. Reactions are initiated by addition of HIF-PH enzyme.
The peptide-dependent percent turnover is calculated by subtracting percent turnover in the absence of peptide from percent turnover in the presence of substrate peptide. Percent inhibition and IC50 are calculated using peptide-dependent percent turnover at given inhibitor concentrations. Calculation of IC50 values for each inhibitor is conducted using GraFit software (Erithacus Software Ltd., Surrey UK).
Representative compounds of the invention were analyzed using the HIF-PH assay described above. Table I below presents enzyme inhibition data for exemplary compounds against HIF-PH2, a representative HIF prolyl hydroxylase enzyme. By inhibiting HIF prolyl hydroxylase enzymes, compounds of the invention stabilize HIFα, which then combines with HIFβ to form an active transcription factor that increases expression of various genes involved in numerous beneficial cellular processes.

T1 sequence (Q9GZT9 whole entry, species assumed): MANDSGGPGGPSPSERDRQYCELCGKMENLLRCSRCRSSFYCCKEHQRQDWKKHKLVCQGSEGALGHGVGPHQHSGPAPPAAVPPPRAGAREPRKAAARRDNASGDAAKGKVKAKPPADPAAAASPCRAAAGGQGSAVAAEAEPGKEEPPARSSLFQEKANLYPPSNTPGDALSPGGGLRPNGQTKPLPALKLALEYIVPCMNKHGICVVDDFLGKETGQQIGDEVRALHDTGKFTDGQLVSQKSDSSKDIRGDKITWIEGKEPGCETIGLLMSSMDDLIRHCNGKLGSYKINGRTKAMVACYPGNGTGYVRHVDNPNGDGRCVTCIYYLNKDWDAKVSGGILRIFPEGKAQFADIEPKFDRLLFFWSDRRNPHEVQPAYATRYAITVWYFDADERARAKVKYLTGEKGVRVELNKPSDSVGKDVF

inhibition at 22.22 µM | SMILES
97% | O=C(O)CNC(=O)c1nc(Cc2ccccc2)c2snc(-c3ccc(Cl)cc3)c2c1O [Example 22, {[7-Benzyl-3-(4-chloro-phenyl)-4-hydroxy-isothiazolo[5,4-c]pyridine-5-carbonyl]-amino}-acetic acid]
100% | O=C(O)CNC(=O)c1nc(-c2cn(Cc3ccccc3)nn2)c2snc(-c3ccc(Cl)cc3)c2c1O [Example 23, {[7-(1-Benzyl-1H-[1,2,3]triazol-4-yl)-3-(4-chloro-phenyl)-4-hydroxy-isothiazolo[5,4-c]pyridine-5-carbonyl]-amino}-acetic acid]
96% | O=C(O)CNC(=O)c1nc(-c2cccc3ccccc23)c2snc(-c3ccc(Cl)cc3)c2c1O [Example 24, {[3-(4-Chloro-phenyl)-4-hydroxy-7-naphthalen-1-yl-isothiazolo[5,4-c]pyridine-5-carbonyl]-amino}-acetic acid]
98% | Cc1nsc2c(O)c(C(=O)NCC(=O)O)nc(-c3ccccc3)c12 [Example 31, [(7-Hydroxy-3-methyl-4-phenyl-isothiazolo[4,5-c]pyridine-6-carbonyl)-amino]-acetic acid]

Further lines, the compound ahead of its results:

SMILES | inhibition at 22.22 µM
N#Cc1nc(C(=O)NCC(=O)O)c(O)c2c(-c3ccc(F)cc3)nsc12 [Example 8, {[7-Cyano-3-(4-fluoro-phenyl)-4-hydroxy-isothiazolo[5,4-c]pyridine-5-carbonyl]-amino}-acetic acid] | 98.3%
N#Cc1ccc(-c2nc(C(=O)NCC(=O)O)c(O)c3c(-c4ccc(F)cc4)nsc23)cc1 [Example 11, {[7-(4-Cyano-phenyl)-3-(4-fluoro-phenyl)-4-hydroxy-isothiazolo[5,4-c]pyridine-5-carbonyl]-amino}-acetic acid] | 91.5%

Same assay, conditions: compound concentration 200 μM

inhibition at 200 µM | SMILES
99.5% | Cc1nc(C(=O)NCC(=O)O)c(O)c2c(-c3ccc(Cl)cc3)nsc12 [Example 15, {[3-(4-Chloro-phenyl)-4-hydroxy-7-methyl-isothiazolo[5,4-c]pyridine-5-carbonyl]-amino}-acetic acid]
99.9% | O=C(O)CNC(=O)c1ncc2snc(-c3ccc(Cl)cc3)c2c1O [Example 16, {[3-(4-Chloro-phenyl)-4-hydroxy-isothiazolo[5,4-c]pyridine-5-carbonyl]-amino}-acetic acid]
98.7% | O=C(O)CNC(=O)c1nc(-c2ccccc2)c2snc(-c3ccc(Cl)cc3)c2c1O [Example 17, {[3-(4-Chloro-phenyl)-4-hydroxy-7-phenyl-isothiazolo[5,4-c]pyridine-5-carbonyl]-amino}-acetic acid]
54% | C[C@@H](NC(=O)c1ncc2snc(-c3ccc(Cl)cc3)c2c1O)C(=O)O [Example 18, (R)-2-{[3-(4-Chloro-phenyl)-4-hydroxy-isothiazolo[5,4-c]pyridine-5-carbonyl]-amino}-propionic acid]
100% | C[C@H](NC(=O)c1ncc2snc(-c3ccc(Cl)cc3)c2c1O)C(=O)O [Example 19, (S)-2-{[3-(4-Chloro-phenyl)-4-hydroxy-isothiazolo[5,4-c]pyridine-5-carbonyl]-amino}-propionic acid]
88.9% | COc1cccc(-c2nc(C(=O)NCC(=O)O)c(O)c3c(-c4ccc(Cl)cc4)nsc23)c1 [Example 20, {[3-(4-Chloro-phenyl)-4-hydroxy-7-(3-methoxy-phenyl)-isothiazolo[5,4-c]pyridine-5-carbonyl]-amino}-acetic acid]
77% | COc1ccc(-c2nc(C(=O)NCC(=O)O)c(O)c3c(-c4ccc(Cl)cc4)nsc23)cn1 [Example 21, {[3-(4-Chloro-phenyl)-4-hydroxy-7-(6-methoxy-pyridin-3-yl)-isothiazolo[5,4-c]pyridine-5-carbonyl]-amino}-acetic acid]
100% | CC(=O)c1nc(C(=O)NCC(=O)O)c(O)c2c(-c3ccc(Cl)cc3)nsc12 [Example 25, {[7-Acetyl-3-(4-chloro-phenyl)-4-hydroxy-isothiazolo[5,4-c]pyridine-5-carbonyl]-amino}-acetic acid]
100% | O=C(O)CNC(=O)c1nc(C(F)(F)F)c2snc(-c3ccc(Cl)cc3)c2c1O [Example 26, {[3-(4-Chloro-phenyl)-4-hydroxy-7-trifluoromethyl-isothiazolo[5,4-c]pyridine-5-carbonyl]-amino}-acetic acid]
98% | O=C(O)CNC(=O)c1nc(Br)c2c(-c3ccccc3)nsc2c1O [Example 27, [(4-Bromo-7-hydroxy-3-phenyl-isothiazolo[4,5-c]pyridine-6-carbonyl)-amino]-acetic acid]
100% | Cc1nc(C(=O)NCC(=O)O)c(O)c2c(C)nsc12 [Example 28, [(4-Hydroxy-3,7-dimethyl-isothiazolo[5,4-c]pyridine-5-carbonyl)-amino]-acetic acid]
100% | Cc1nsc2c(O)c(C(=O)NCC(=O)O)nc(C)c12 [Example 29, [(7-Hydroxy-3,4-dimethyl-isothiazolo[4,5-c]pyridine-6-carbonyl)-amino]-acetic acid]
100% | Cc1nsc2c(-c3ccccc3)nc(C(=O)NCC(=O)O)c(O)c12 [Example 30, [(4-Hydroxy-3-methyl-7-phenyl-isothiazolo[5,4-c]pyridine-5-carbonyl)-amino]-acetic acid]
100% | Cc1nsc2c(O)c(C(=O)NCC(=O)O)ncc12 [Example 32, [(7-Hydroxy-3-methyl-isothiazolo[4,5-c]pyridine-6-carbonyl)-amino]-acetic acid]

The next lines start with the compound.

SMILES | inhibition at 200 µM
O=C(O)CNC(=O)c1nc(-c2ccc(F)cc2)c2snc(-c3ccccc3)c2c1O [Example 1, {[7-(4-Fluoro-phenyl)-4-hydroxy-3-phenyl-isothiazolo[5,4-c]pyridine-5-carbonyl]-amino}-acetic acid] | 98%
COc1ccc(-c2nc(C(=O)NCC(=O)O)c(O)c3c(-c4ccccc4)nsc23)cc1 [Example 2, {[4-Hydroxy-7-(4-methoxy-phenyl)-3-phenyl-isothiazolo[5,4-c]pyridine-5-carbonyl]-amino}-acetic acid] | 97.9%
O=C(O)CNC(=O)c1nc(-c2cccnc2)c2snc(-c3ccccc3)c2c1O [Example 3, [(4-Hydroxy-3-phenyl-7-pyridin-3-yl-isothiazolo[5,4-c]pyridine-5-carbonyl)-amino]-acetic acid] | 100%
O=C(O)CNC(=O)c1nc(-c2ccccn2)c2snc(-c3ccccc3)c2c1O [Example 4, [(4-Hydroxy-3-phenyl-7-pyridin-2-yl-isothiazolo[5,4-c]pyridine-5-carbonyl)-amino]-acetic acid] | 99.1%
O=C(O)CNC(=O)c1nc(-c2ccncc2)c2snc(-c3ccccc3)c2c1O [Example 5, [(4-Hydroxy-3-phenyl-7-pyridin-4-yl-isothiazolo[5,4-c]pyridine-5-carbonyl)-amino]-acetic acid] | 97.1%
C#Cc1nc(C(=O)NCC(=O)O)c(O)c2c(-c3ccc(F)cc3)nsc12 [Example 6, {[7-Ethynyl-3-(4-fluoro-phenyl)-4-hydroxy-isothiazolo[5,4-c]pyridine-5-carbonyl]-amino}-acetic acid] | 98.3%
O=C(O)CNC(=O)c1nc(Br)c2snc(-c3ccc(F)cc3)c2c1O [Example 7, {[7-Bromo-3-(4-fluoro-phenyl)-4-hydroxy-isothiazolo[5,4-c]pyridine-5-carbonyl]-amino}-acetic acid] | 100%
Cc1nc(C(=O)NCC(=O)O)c(O)c2c(-c3ccc(F)cc3)nsc12 [Example 9, {[3-(4-Fluoro-phenyl)-4-hydroxy-7-methyl-isothiazolo[5,4-c]pyridine-5-carbonyl]-amino}-acetic acid] | 97.4%
O=C(O)CNC(=O)c1nc(-c2ccccc2)c2snc(-c3ccc(F)cc3)c2c1O [Example 10, {[3-(4-Fluoro-phenyl)-4-hydroxy-7-phenyl-isothiazolo[5,4-c]pyridine-5-carbonyl]-amino}-acetic acid] | 98.2%
O=C(O)CNC(=O)c1ncc2snc(-c3ccc(F)cc3)c2c1O [Example 12, {[3-(4-Fluoro-phenyl)-4-hydroxy-isothiazolo[5,4-c]pyridine-5-carbonyl]-amino}-acetic acid] | 98.9%
COc1ccc(-c2nc(C(=O)NCC(=O)O)c(O)c3c(-c4ccc(Cl)cc4)nsc23)cc1 [Example 13, {[3-(4-Chloro-phenyl)-4-hydroxy-7-(4-methoxy-phenyl)-isothiazolo[5,4-c]pyridine-5-carbonyl]-amino}-acetic acid] | 94.5%
C#Cc1nc(C(=O)NCC(=O)O)c(O)c2c(-c3ccc(Cl)cc3)nsc12 [Example 14, {[3-(4-Chloro-phenyl)-7-ethynyl-4-hydroxy-isothiazolo[5,4-c]pyridine-5-carbonyl]-amino}-acetic acid] | 100%
